Laboratory results: the NIST ThermoML archive (doi:10.1021/je900276q)
Where “and” joins values, the source holds several entries; their conditions need not be identical. Equal entries are not always repeated.

Details: Crystal, Calculated from knudsen effusion weight loss

[F][Ga]([F])[F] [gallium fluoride (GaF3)]
Details | vapor or sublimation pressure
808 K | 4.677e-05 kPa
810 K | 3.981e-05 kPa
813 K | 4.677e-05 kPa
816 K | 4.677e-05 kPa
818 K | 6.31e-05 kPa
820 K | 5.495e-05 kPa
822 K | 6.31e-05 kPa
827 K | 9.55e-05 kPa and 7.943e-05 kPa
830 K | 9.55e-05 kPa
835 K | 0.0001096 kPa
836 K | 0.0001413 kPa
837 K | 0.0001096 kPa
839 K | 0.0001259 kPa
842 K | 0.0002239 kPa
843 K | 0.0001413 kPa
844 K | 0.000257 kPa
845 K | 0.0001905 kPa and 0.0002818 kPa
846 K | 0.000166 kPa
847 K | 0.0001738 kPa and 0.000257 kPa
852 K | 0.0002692 kPa
853 K | 0.0002188 kPa and 0.0003715 kPa
854 K | 0.0004074 kPa
855 K | 0.0002344 kPa and 0.0004677 kPa
856 K | 0.0002512 kPa
857 K | 0.0003715 kPa
859 K | 0.0006026 kPa
861 K | 0.0003802 kPa
862 K | 0.0003162 kPa
863 K | 0.0005888 kPa and 0.0005495 kPa
864 K | 0.0003311 kPa
866 K | 0.0005495 kPa
867 K | 0.0003802 kPa
869 K | 0.0005248 kPa
870 K | 0.0008913 kPa
871 K | 0.0004365 kPa and 0.0008128 kPa
872 K | 0.0004571 kPa and 0.0008128 kPa
874 K | 0.0007413 kPa
876 K | 0.000537 kPa
878 K | 0.0007586 kPa
880 K | 0.0006166 kPa and 0.001096 kPa
881 K | 0.001349 kPa
882 K | 0.0006457 kPa
884 K | 0.0009772 kPa and 0.001259 kPa
885 K | 0.0007943 kPa and 0.001175 kPa
890 K | 0.0008511 kPa and 0.000871 kPa and 0.001585 kPa
893 K | 0.001413 kPa and 0.002089 kPa
894 K | 0.001202 kPa and 0.001862 kPa and 0.001622 kPa
895 K | 0.001096 kPa
898 K | 0.002138 kPa
900 K | 0.001349 kPa
901 K | 0.001862 kPa and 0.002042 kPa
902 K | 0.002399 kPa
903 K | 0.00166 kPa and 0.002884 kPa
904 K | 0.001622 kPa
907 K | 0.002818 kPa
909 K | 0.002455 kPa and 0.001778 kPa
910 K | 0.00389 kPa and 0.002818 kPa
911 K | 0.002138 kPa
913 K | 0.002188 kPa and 0.003467 kPa
916 K | 0.002455 kPa and 0.003802 kPa
918 K | 0.00309 kPa
919 K | 0.00389 kPa
920 K | 0.00537 kPa
921 K | 0.002884 kPa
923 K | 0.003236 kPa
924 K | 0.005012 kPa
925 K | 0.005248 kPa
928 K | 0.007079 kPa
929 K | 0.005495 kPa
934 K | 0.007413 kPa
935 K | 0.007244 kPa
938 K | 0.00955 kPa
939 K | 0.007413 kPa
942 K | 0.00955 kPa
945 K | 0.01023 kPa
946 K | 0.009333 kPa
947 K | 0.01288 kPa
948 K | 0.01175 kPa
955 K | 0.01445 kPa
956 K | 0.01413 kPa
958 K | 0.01698 kPa and 0.01318 kPa

[Cl][Ga]([Cl])[Cl] [gallium chloride]
Details | vapor or sublimation pressure
289 K | 0.004266 kPa
290.5 K | 0.005754 kPa
292 K | 0.006166 kPa
293 K | 0.006761 kPa and 0.006918 kPa
293.5 K | 0.007413 kPa
294 K | 0.007943 kPa
295.5 K | 0.00912 kPa
296 K | 0.008913 kPa
297 K | 0.01148 kPa and 0.01072 kPa and 0.01047 kPa
298 K | 0.01175 kPa
298.5 K | 0.01175 kPa
299 K | 0.01318 kPa
299.5 K | 0.01349 kPa
300.5 K | 0.01413 kPa and 0.0138 kPa
301 K | 0.0166 kPa
302 K | 0.01698 kPa
303 K | 0.01905 kPa and 0.0182 kPa
303.5 K | 0.02089 kPa
304.5 K | 0.02042 kPa
305 K | 0.02344 kPa and 0.02089 kPa
306 K | 0.02512 kPa and 0.02754 kPa
307 K | 0.02884 kPa and 0.0263 kPa
308 K | 0.0309 kPa and 0.02951 kPa and 0.02818 kPa

[I][Ga]([I])[I] [gallium iodide]
Details | vapor or sublimation pressure
344.5 K | 0.0001445 kPa
346 K | 0.0001698 kPa and 0.0001445 kPa
347 K | 0.000195 kPa
348 K | 0.000195 kPa
348.5 K | 0.0001445 kPa
349 K | 0.000195 kPa
349.5 K | 0.0002455 kPa and 0.0002951 kPa
350 K | 0.000195 kPa
351.5 K | 0.0003388 kPa
352 K | 0.0002455 kPa
352.5 K | 0.0003388 kPa
354 K | 0.0004365 kPa and 0.0003388 kPa
355 K | 0.0003388 kPa and 0.000389 kPa
356 K | 0.0004365 kPa
357 K | 0.0004365 kPa
357.5 K | 0.0006761 kPa and 0.0004898 kPa
359.5 K | 0.000537 kPa
361.5 K | 0.0006761 kPa
362 K | 0.000871 kPa
364 K | 0.0009333 kPa and 0.0007762 kPa
365.5 K | 0.0009772 kPa
367 K | 0.001148 kPa
367.5 K | 0.00123 kPa
368.5 K | 0.001122 kPa and 0.00123 kPa
370 K | 0.001413 kPa
372 K | 0.001445 kPa and 0.00166 kPa
372.5 K | 0.00166 kPa
373 K | 0.001905 kPa and 0.001738 kPa
374.5 K | 0.002042 kPa and 0.001995 kPa
375.5 K | 0.002291 kPa
377 K | 0.002399 kPa
377.5 K | 0.002692 kPa
378 K | 0.002951 kPa
379 K | 0.002951 kPa
380 K | 0.002951 kPa
381.5 K | 0.003715 kPa
382 K | 0.004266 kPa
383 K | 0.00389 kPa
383.5 K | 0.004169 kPa
384 K | 0.004898 kPa
387.5 K | 0.006607 kPa and 0.006026 kPa and 0.00631 kPa
389.5 K | 0.007244 kPa
390.5 K | 0.00871 kPa and 0.007244 kPa
391.5 K | 0.00871 kPa
393.5 K | 0.01096 kPa and 0.01 kPa
394 K | 0.009772 kPa
397 K | 0.0138 kPa
398 K | 0.01349 kPa
400.5 K | 0.01778 kPa
401 K | 0.01698 kPa
